In brackets after ≈: the same amount, converted by molar mass.
Columns and labels:
MiaPaCa-2 cells = test: CAPSC conditioned media experiments; assay type: cell-based, human; settings: CM from Cal-treated CAPSCs (100 nM, 48 h), 48 h on MiaPaCa-2
Method: Primary […] were grown to 100% confluency. Fresh media was added to the cultures, and at this time, […] were treated with 100 nM calcipotriol. After 48 h, conditioned media was harvested, sterile-filtered through 0.45 μm pores, and added to pancreatic cancer cells (PCCs) at 50-60% confluency. PCCs were treated directly with 100 nM calcipotriol at the onset of conditioned media incubation. After 48 h, PCCs were harvested and RNA and protein isolated for analysis.

hPSC cell line = test: Chromatin immunoprecipitation for VDR and SMAD3; assay type: cell-based, human; settings: 100 nM Cal 16 h pretreatment, 1 ng/ml TGFβ 4 h
Method: The hPSC cell line was utilized for chromatin immunoprecipitation, which was described previously (Barish et al., 2010). Briefly, cells were fixed in 1% formaldehyde, and nuclei were isolated and lysed in buffer containing 1% SDS, 10 mM EDTA, 50 mM Tris-HCl pH 8.0, and protease inhibitors, and sheared with a Diagenode Bioruptor to chromatin fragment sizes of 200-1000 base pairs. Chromatin was immunoprecipitated with antibodies to VDR (C-20, Santa Cruz Biotechnology), SMAD3 (Abcam), or rabbit IgG (Santa Cruz Biotechnology).

primary human CAPSCs [1] = test: ACTA2 expression by qRT-PCR; assay type: cell-based; settings: 100 nM Cal, 48 h; samples responding / samples tested
Method: Total RNA was purified following Trizol extraction according to the manufacturer's instructions. cDNA synthesis was carried out using iScript reagent (Bio-Rad), and qRT-PCR performed using SsoAdvanced SYBR Green reagent on the CFX384 detection system (Bio-Rad). Relative expression values were determined using the standard curve method. Primer sequences can be found in Table 2.

[2] = test system: KPC mice with pancreatic ductal adenocarcinoma; test: KPC mouse PDA study; assay type: in vivo; settings: Cal alone
Method: KPC mice with pancreatic ductal adenocarcinoma were used based on tumor size, as described previously (Olive et al., 2009). In this study, enrollment was restricted to mice with tumors of a mean diameter between 6 and 9 mm, as determined by high resolution ultrasound imaging. Suitable mice were assigned to a treatment group: gemcitabine; calcipotriol; or gemcitabine and calcipotriol combination. Gemcitabine was administered as a saline solution at 100 mg/kg by intraperitoneal injection, once every three days; when appropriate, a final dose was given two hours prior to euthanasia. Calcipotriol was administered as a saline solution daily at 60 μg/kg by intraperitoneal injection. […]
LC-MS/MS was performed as described by Bapiro et al. (Bapiro et al., 2011). […] Analytes were separated using a gradient of acetonitrile in 10 mM ammonium acetate, pH 10 and detected using a Thermo LTQ-XL mass spectrometer (Thermo Fisher Scientific). Drugs recoveries were normalized using the internal standards and quantified using calibration standards generated from untreated tissue homogenates as described (Bapiro et al., 2011).
Tumors harvested from treated KPC mice were immediately fixed in buffered formalin. […] CD31-positive area was quantified in each section using Nuance software. […] Total tumor cells were quantified per field, as well as total and percent CC3-positive tumor cells per field. […]

[3] = cited from earlier work
primary human CAPSCs [4] = test: Lipid droplet accumulation assay (BODIPY 493/503); assay type: cell-based; settings: 100 nM Cal, 48 h; samples responding / samples tested
Method: Primary human CAPSCs were seeded onto glass coverslips. After overnight attachment, cells were treated with vehicle (DMSO) or 100 nM calcipotriol for 48 h. Media was aspirated, cells were washed twice with PBS (Gibco) and fixed in 10% buffered formalin at room temperature for 15 minutes. Fixative was removed and cells were washed three times with PBS. Cells were then stained with 1 μg/ml 4,4-Difluoro-1,3,5,7,8-Pentamethyl-4-Bora-3a,4a-Diaza-s-Indacene (BODIPY 493/503, Molecular Probes) for 1 h at room temperature, protected from light. Dye was removed and cells were washed three times with PBS, then mounted using Vectastain mounting medium (Vector Labs). Fluorescence was visualized through the GFP filter on a Leica DM5000B fluorescent microscope and quantification performed using ImageJ.

C=C1/C(=C\C=C2/CCC[C@]3(C)[C@@H]([C@H](C)/C=C/[C@@H](O)C4CC4)CC[C@@H]23)C[C@@H](O)C[C@@H]1O [Cal, 1α,24-(OH)2-24-cyclopropyl-D3]
gene expression changes induced by CAPSC conditioned media (MiaPaCa-2 cells): largely abrogated | SMAD3 binding in promoter regions of fibrogenic genes (HAS2, COL1A1) (hPSC cell line): decreasing SMAD3 binding | VDR binding in promoter regions of fibrogenic genes (HAS2, COL1A1) (hPSC cell line): increased VDR binding | decreased expression of αSMA (ACTA2), patient samples (primary human CAPSCs [1]): 24/27 | efficacy as a single agent [2]: no measurable beneficial effects | solubility in DMSO ([3]; DMSO): 100 mM (≈ 41.3 mg/mL) | solubility in ethanol ([3]; ethanol): 100 mM (≈ 41.3 mg/mL) | lipid droplet formation, primary patient samples (primary human CAPSCs [4]): 19/27

— US9895381B2, “Vitamin D receptor agonists to treat diseases involving CXCL12 activity” (Salk Institute for Biological Studies, priority 2013, dated 2018)
